# From patent US20240148821A1, “PHARMACEUTICAL USE OF CYCLIC PEPTIDE COMPOUND” (CHUGAI SEIYAKU KABUSHIKI KAISHA, priority 2021, published 2024)
# Numbered stars: 1 amine (or outer) side, 2 acyl side, 3 side chain; on linkers, the order of the positions; unused ones are H or OH. Bridge positions count the residues as written; N and C are the ends. Square brackets hold non-standard residues; d marks the D form. Peptide text beside a SMILES is read from it. * marks the point of attachment. hPhe(3-Cl-4-CF3) = N[C@@H](CCc1ccc(C(F)(F)F)c(Cl)c1)C(=O)O; NMePhe(4-Me) = CN[C@@H](Cc1ccc(C)cc1)C(=O)O; NMePhe(2-Cl) = CN[C@@H](Cc1ccccc1Cl)C(=O)O; X61 = O=C(CN(CCCN1CCC(F)(F)CC1)[*:1])[*:2]; NMeCha = CN[C@@H](CC1CCCCC1)C(=O)O; NMeChg = CN[C@H](C(=O)O)C1CCCCC1; NMeD = CN[C@@H](CC(=O)O)C(=O)O; NMeL = CN[C@@H](CC(C)C)C(=O)O; NMeNle = CCCC[C@H](NC)C(=O)O; NMeV = CN[C@H](C(=O)O)C(C)C; d(β3hA) = C[C@@H](N)CC(=O)O; NMeAbu = CC[C@H](NC)C(=O)O; NMeS = CN[C@@H](CO)C(=O)O; Morpholide = C1CN(*)CCO1; NMeA = CN[C@@H](C)C(=O)O; Piperidide = C1CCN(*)CC1; Pyrrolidide = C1CCN(*)C1; dNMeA = CN[C@H](C)C(=O)O; Ac5c = NC1(C(=O)O)CCCC1; Aze = O=C(O)[C@@H]1CCN1; Sar = CNCC(=O)O; Propyl = CCC*
# Target: protein-protein interaction between Kras and SOS1 (biotin-tagged human Kras loaded with GDP, His-tagged human SOS1) (Homo sapiens (Human), UniProt P01116, G12D)
# Assay: Protein-protein interaction inhibition between Kras and SOS1 (KrasG12D-SOS PPI) using AlphaScreen;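 further: kras produced in E. coli, Ni-coupled donor beads and streptavidin acceptor beads, excitation 680 nm with emission detected at 520–620 nm via singlet oxygen transfer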
# Assay type: biochemical
# Settings: AlphaScreen; biotin-tagged human Kras loaded with GDP, His-tagged human SOS1; read-out: KRAS G12D-SOS PPI IC50
row,Compound,IC50 [nM]
1,CC[C@H](C)[C@@H]1NC(=O)[C@H](C)N(C)C(=O)C[C@@H](C(=O)N2CCCCC2)N(C)C(=O)[C@H](C(C)C)N(C)C(=O)C2(CCCC2)NC(=O)[C@H](Cc2ccccc2Cl)N(C)C(=O)[C@H](CCc2ccc(C(F)(F)F)c(Cl)c2)NC(=O)CN(C)C(=O)[C@H](Cc2ccc(C)cc2)N(C)C(=O)CN(C)C(=O)CN(C)C1=O [Compound 2007] ([NMeA]I[Sar][Sar][NMePhe(4-Me)][Sar][hPhe(3-Cl-4-CF3)][NMePhe(2-Cl)][Ac5c][NMeV][NMeD]-Piperidide; lactam N-11),230
2,CC[C@H](C)[C@@H]1NC(=O)[C@H](C)N(C)C(=O)C[C@@H](C(=O)N2CCCC2)N(C)C(=O)[C@H](C(C)C)N(C)C(=O)C2(CCCC2)NC(=O)[C@H](Cc2ccccc2Cl)N(C)C(=O)[C@H](CCc2ccc(C(F)(F)F)c(Cl)c2)NC(=O)CN(C)C(=O)[C@H](CC2CCCCC2)N(C)C(=O)CN(C)C(=O)CN(C)C1=O [Compound 2008] ([NMeA]I[Sar][Sar][NMeCha][Sar][hPhe(3-Cl-4-CF3)][NMePhe(2-Cl)][Ac5c][NMeV][NMeD]-Pyrrolidide; lactam N-11),140
3,CC[C@H](C)[C@@H]1NC(=O)[C@H](C)N(C)C(=O)C[C@@H](C)NC(=O)[C@H](C(C)C)N(C)C(=O)C2(CCCC2)NC(=O)[C@@H]2CCCN2C(=O)[C@H](CCc2ccc(C(F)(F)F)c(Cl)c2)NC(=O)[C@@H](C)N(C)C(=O)[C@H](CC2CCCCC2)N(C)C(=O)[C@@H]2CCCN2C(=O)[C@@H]2CCN2C1=O [Compound 2009] (cyclo([Ac5c][NMeV][d(β3hA)][NMeA]I[Aze]P[NMeCha][dNMeA][hPhe(3-Cl-4-CF3)]P)),82
4,CC[C@H](C)[C@@H]1NC(=O)[C@H](C)N(C)C(=O)C[C@@H](C)NC(=O)[C@H](C(C)C)N(C)C(=O)C2(CCCC2)NC(=O)[C@@H]2CCCN2C(=O)[C@H](CCc2ccc(C(F)(F)F)c(Cl)c2)NC(=O)[C@@H](C)N(C)C(=O)[C@H](CC2CCCCC2)N(C)C(=O)[C@@H]2CCN2C(=O)[C@H](CC)N(C)C1=O [Compound 2012] (cyclo([Ac5c][NMeV][d(β3hA)][NMeA]I[NMeAbu][Aze][NMeCha][dNMeA][hPhe(3-Cl-4-CF3)]P)),200
5,CC[C@H](C)[C@@H]1NC(=O)[C@H](C)N(C)C(=O)C[C@@H](C)NC(=O)[C@H](C(C)C)N(C)C(=O)C2(CCCC2)NC(=O)[C@@H]2CCCN2C(=O)[C@H](CCc2ccc(C(F)(F)F)c(Cl)c2)NC(=O)[C@@H](C)N(C)C(=O)[C@H](CC2CCCCC2)N(C)C(=O)[C@@H]2CCN2C(=O)[C@@H]2CCN2C1=O [Compound 2013] (cyclo([Ac5c][NMeV][d(β3hA)][NMeA]I[Aze][Aze][NMeCha][dNMeA][hPhe(3-Cl-4-CF3)]P)),150
6,CCCOC[C@H]1C(=O)N2CC[C@H]2C(=O)N(C)[C@@H](CC2CCCCC2)C(=O)N(C)[C@H](C)C(=O)N[C@@H](CCc2ccc(C(F)(F)F)c(Cl)c2)C(=O)N2CCC[C@H]2C(=O)NC2(CCCC2)C(=O)N(C)[C@@H](C(C)C)C(=O)N[C@H](C)CC(=O)N(C)[C@@H](C)C(=O)N[C@@H]([C@@H](C)CC)C(=O)N1C [Compound 2016] (cyclo([Ac5c][NMeV][d(β3hA)][NMeA]I[NMeS](Propyl)[Aze][NMeCha][dNMeA][hPhe(3-Cl-4-CF3)]P)),270
7,CCCC[C@H]1C(=O)N2CC[C@H]2C(=O)N(C)[C@@H](CC2CCCCC2)C(=O)N(C)[C@H](C)C(=O)N[C@@H](CCc2ccc(C(F)(F)F)c(Cl)c2)C(=O)N2CCC[C@H]2C(=O)NC2(CCCC2)C(=O)N(C)[C@@H](C(C)C)C(=O)N[C@H](C)CC(=O)N(C)[C@@H](C)C(=O)N[C@@H]([C@@H](C)CC)C(=O)N1C [Compound 2017] (cyclo([Ac5c][NMeV][d(β3hA)][NMeA]I[NMeNle][Aze][NMeCha][dNMeA][hPhe(3-Cl-4-CF3)]P)),350
8,CC[C@H](C)[C@@H]1NC(=O)[C@H](C)N(C)C(=O)C[C@@H](C)NC(=O)[C@H](C(C)C)N(C)C(=O)C2(CCCC2)NC(=O)[C@@H]2CCCN2C(=O)[C@H](CCc2ccc(C(F)(F)F)c(Cl)c2)NC(=O)[C@@H](C)N(C)C(=O)[C@H](CC2CCCCC2)N(C)C(=O)[C@@H]2CCN2C(=O)[C@H](CC(C)C)N(C)C1=O [Compound 2018] (cyclo([Ac5c][NMeV][d(β3hA)][NMeA]I[NMeL][Aze][NMeCha][dNMeA][hPhe(3-Cl-4-CF3)]P)),320
9,CC[C@H](C)[C@@H]1NC(=O)[C@H](C)N(C)C(=O)C[C@@H](C(=O)N2CCOCC2)N(C)C(=O)[C@H](C(C)C)N(C)C(=O)C2(CCCC2)NC(=O)[C@H](Cc2ccccc2Cl)N(C)C(=O)[C@H](CCc2ccc(C(F)(F)F)c(Cl)c2)NC(=O)CN(C)C(=O)[C@H](CC2CCCCC2)N(C)C(=O)CN(C)C(=O)CN(C)C1=O [Compound 2020] ([NMeA]I[Sar][Sar][NMeCha][Sar][hPhe(3-Cl-4-CF3)][NMePhe(2-Cl)][Ac5c][NMeV][NMeD]-Morpholide; lactam N-11),270
10,CC[C@H](C)[C@@H]1NC(=O)[C@H](CC(C)C)N(C)C(=O)C[C@@H](C(=O)N2CCCCC2)N(C)C(=O)[C@H](C2CCCCC2)N(C)C(=O)C2(CCCC2)NC(=O)CN(CCCN2CCC(F)(F)CC2)C(=O)[C@H](CCc2ccc(C(F)(F)F)c(Cl)c2)NC(=O)CN(C)C(=O)[C@H](CC2CCCCC2)N(C)C(=O)CN(C)C(=O)CN(C)C1=O [Compound 2021] ([NMeL]I[Sar][Sar][NMeCha][Sar][hPhe(3-Cl-4-CF3)][X61][Ac5c][NMeChg][NMeD]-Piperidide; lactam N-11),2.8
